Measured values taken from ChEMBL document CHEMBL3397033, “Bioactive benzofuran derivatives: moracins A-Z in medicinal chemistry” (Eur J Med Chem, 2015).
Converted amounts (≈) assume the structure as drawn.

How the values were obtained:
[1] = Antifungal activity against Stigmina mori; format: functional
[2] = Antifungal activity against Fusarium solani f. sp. mori; format: functional
[3] = test system: Klebsiella pneumoniae; experiment: Antimicrobial activity against Klebsiella pneumoniae; format: functional
[4] = test system: Escherichia coli; experiment: Antimicrobial activity against Escherichia coli; format: functional
[5] = Antifungal activity against Cochliobolus miyabeanus; format: functional; conditions: Bipolaris oryzae
[6] = Antifungal activity against Diaporthe nomurai; format: functional
[7] = Antifungal activity against Fusarium roseum; format: functional
[8] = Antifungal activity against Fusarium lateritium f. sp. mori; format: functional
[9] = test system: Rosellinia necatrix; experiment: Antifungal activity against Rosellinia necatrix; format: functional
[10] = test system: Pseudomonas aeruginosa; experiment: Antimicrobial activity against Pseudomonas aeruginosa; format: functional
[11] = test system: Enterococcus faecalis; experiment: Microbicidal activity against Streptococcus faecalis by liquid microdilution assay; format: functional
[12] = test system: Shigella dysenteriae; experiment: Antimicrobial activity against Shigella dysenteriae by liquid microdilution assay; format: functional
[13] = test system: Salmonella typhi; experiment: Microbicidal activity against Salmonella typhi by liquid microdilution assay; format: functional, Salmonella enterica subsp. enterica serovar Typhi; conditions: Salmonella enterica
[14] = Antioxidant activity assessed as DPPH radical scavenging activity measured as discoloration at 100 ug/ml; format: physicochemical
[15] = Antioxidant activity assessed as DPPH radical scavenging activity; format: physicochemical
[16] = test system: Shigella dysenteriae; experiment: Microbicidal activity against Shigella dysenteriae by liquid microdilution assay; format: functional
[17] = test system: Microsporum audouinii; experiment: Antimicrobial activity against Microsporum audouinii by liquid microdilution assay; format: functional
[18] = Antioxidant activity assessed as DPPH radical scavenging activity measured as discoloration at 12.5 ug/ml; format: physicochemical
[19] = test system: Citrobacter freundii; experiment: Microbicidal activity against Citrobacter freundii by liquid microdilution assay; format: functional
[20] = test system: Escherichia coli; experiment: Antimicrobial activity against Escherichia coli by liquid microdilution assay; format: functional
[21] = test system: Bacillus cereus; experiment: Antimicrobial activity against Bacillus cereus by liquid microdilution assay; format: functional
[22] = test system: Candida albicans; experiment: Microbicidal activity against Candida albicans by liquid microdilution assay; format: functional
[23] = test system: Salmonella typhi; experiment: Antimicrobial activity against Salmonella typhi by liquid microdilution assay; format: functional, Salmonella enterica subsp. enterica serovar Typhi; conditions: Salmonella enterica
[24] = test system: Bacillus cereus; experiment: Microbicidal activity against Bacillus cereus by liquid microdilution assay; format: functional
[25] = test system: Staphylococcus aureus; experiment: Antimicrobial activity against Staphylococcus aureus by liquid microdilution assay; format: functional
[26] = test system: Pseudomonas aeruginosa; experiment: Antimicrobial activity against Pseudomonas aeruginosa by liquid microdilution assay; format: functional
[27] = test system: Staphylococcus aureus; experiment: Microbicidal activity against Staphylococcus aureus by liquid microdilution assay; format: functional
[28] = test system: Citrobacter freundii; experiment: Antimicrobial activity against Citrobacter freundii by liquid microdilution assay; format: functional
[29] = test system: Klebsiella pneumoniae; experiment: Microbicidal activity against Klebsiella pneumoniae by liquid microdilution assay; format: functional
[30] = test system: Klebsiella pneumoniae; experiment: Antimicrobial activity against Klebsiella pneumoniae by liquid microdilution assay; format: functional
[31] = test system: Microsporum audouinii; experiment: Microbicidal activity against Microsporum audouinii by liquid microdilution assay; format: functional
[32] = Antioxidant activity assessed as DPPH radical scavenging activity measured as discoloration at 25 ug/ml; format: physicochemical
[33] = test system: Candida albicans; experiment: Antimicrobial activity against Candida albicans by liquid microdilution assay; format: functional
[34] = Antioxidant activity assessed as DPPH radical scavenging activity measured as discoloration at 50 ug/ml; format: physicochemical
[35] = test system: Escherichia coli; experiment: Microbicidal activity against Escherichia coli by liquid microdilution assay; format: functional
[36] = test system: Enterococcus faecalis; experiment: Antimicrobial activity against Streptococcus faecalis by liquid microdilution assay; format: functional
[37] = target: Tyrosinase (Agaricus bisporus, UniProt O42713); experiment: Inhibition of mushroom tyrosinase
Sequence of Tyrosinase (O42713 whole entry): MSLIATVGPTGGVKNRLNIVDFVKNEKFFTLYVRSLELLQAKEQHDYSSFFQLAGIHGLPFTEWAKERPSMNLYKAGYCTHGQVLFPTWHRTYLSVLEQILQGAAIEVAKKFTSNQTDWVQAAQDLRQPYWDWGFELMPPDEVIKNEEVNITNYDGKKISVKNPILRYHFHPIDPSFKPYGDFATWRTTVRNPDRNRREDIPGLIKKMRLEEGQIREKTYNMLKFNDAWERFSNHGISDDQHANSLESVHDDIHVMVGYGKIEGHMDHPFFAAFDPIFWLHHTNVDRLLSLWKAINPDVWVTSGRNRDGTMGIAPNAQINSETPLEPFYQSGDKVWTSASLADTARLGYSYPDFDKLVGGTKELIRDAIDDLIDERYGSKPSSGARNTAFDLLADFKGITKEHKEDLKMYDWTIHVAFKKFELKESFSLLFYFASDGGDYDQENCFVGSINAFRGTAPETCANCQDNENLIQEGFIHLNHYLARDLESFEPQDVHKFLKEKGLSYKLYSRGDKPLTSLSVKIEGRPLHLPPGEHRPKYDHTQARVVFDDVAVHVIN

[38] = Inhibition of alpha-glucosidase (unknown origin); parameters: species or system Homo sapiens
[39] = Cytotoxicity against human BGC823 cells after 96 hrs by MTT assay; format: functional, cell-based; conditions: BGC-823, 96 h
[40] = test system: A2780; experiment: Cytotoxicity against human A2780 cells after 96 hrs by MTT assay; format: functional, cell-based; conditions: A2780, 96 h
[41] = test system: Morus alba; experiment: Antioxidant activity in mulberry leaves assessed as UV-stress-induced free radical scavenging activity measured as inhibition of blue formazan at 100 uM; format: functional
[42] = Cytotoxicity against human Bel7402 cells after 96 hrs by MTT assay; format: functional, cell-based; conditions: Bel-7402, 96 h
[43] = test system: A549; experiment: Cytotoxicity against human A549 cells after 96 hrs by MTT assay; format: functional, cell-based; conditions: A549, 96 h
[44] = Cytotoxicity against human HCT8 cells after 96 hrs by MTT assay; format: functional, cell-based; conditions: HCT-8, 96 h
[45] = test system: RAW264.7; experiment: Antiinflammatory activity against mouse RAW264.7 cells assessed as reduction of IFNgamma-induced NO production; format: functional, cell-based
[46] = test system: Pseudomonas aeruginosa; experiment: Microbicidal activity against Pseudomonas aeruginosa by liquid microdilution assay; format: functional
[47] = test system: RAW264.7; experiment: Antiinflammatory activity against mouse RAW264.7 cells assessed as reduction of LPS-induced NO production; format: functional, cell-based

| Compound | MIC [3] | MIC [4] | MIC [10] | MBC [11] | MIC [12] | MBC [13] | Activity [14] | EC50 [15] | MBC [16] | MIC [17] | Activity [18] | MIC [20] | MIC [21] | MIC [23] | MBC [24] | MIC [25] | MIC [26] | MBC [27] | MBC [29] | MIC [30] | also measured |
| --- | --- | --- | --- | --- | --- | --- | --- | --- | --- | --- | --- | --- | --- | --- | --- | --- | --- | --- | --- | --- | --- |
| COc1cc2c(c3oc(-c4cc(O)cc(O)c4)cc13)CC=C(C)CO2 | > 100 µg/mL | > 100 µg/mL | > 100 µg/mL |  |  |  |  |  |  |  |  |  |  |  |  |  |  |  |  |  | MIC [1]: 50 µg/mL (≈ 148 µM); MIC [2]: 1000 µg/mL (≈ 2960 µM); MIC [5]: 50 µg/mL (≈ 148 µM); MIC [6]: 50 µg/mL (≈ 148 µM); MIC [7]: 15 µg/mL (≈ 44.3 µM); MIC [8]: 100 µg/mL (≈ 296 µM); MIC [9]: 15 µg/mL (≈ 44.3 µM) |
| COc1cc(OC)c2cc(-c3cc(O)cc(O)c3)oc2c1 | > 100 µg/mL | > 100 µg/mL | > 100 µg/mL |  |  |  |  |  |  |  |  |  |  |  |  |  |  |  |  |  |  |
| CC1(O)C=Cc2c(c(O)cc3cc(-c4cc(O)cc(O)c4)oc23)OC1 (stereo unspecified) | > 100 µg/mL | > 100 µg/mL | > 100 µg/mL | 78 µg/mL (≈ 229 µM) | 78 µg/mL (≈ 229 µM) | 78 µg/mL (≈ 229 µM) | 53.6% | 6.08 µg/mL (≈ 17.9 µM) | 156 µg/mL (≈ 458 µM) | 78 µg/mL (≈ 229 µM) | 38.5% | 10 µg/mL (≈ 29.4 µM) | 10 µg/mL (≈ 29.4 µM) | 39 µg/mL (≈ 115 µM) | 39 µg/mL (≈ 115 µM) | 156 µg/mL (≈ 458 µM) | 625 µg/mL (≈ 1840 µM) | 312 µg/mL (≈ 917 µM) | 312 µg/mL (≈ 917 µM) | 156 µg/mL (≈ 458 µM) | MBC [19]: 625 µg/mL (≈ 1840 µM); MFC [22]: 625 µg/mL (≈ 1840 µM); MIC [28]: 312 µg/mL (≈ 917 µM); MFC [31]: 312 µg/mL (≈ 917 µM); Activity [32]: 42.09%; MIC [33]: 312 µg/mL (≈ 917 µM); Activity [34]: 49.98%; MBC [35]: 39 µg/mL (≈ 115 µM); MIC [36]: 20 µg/mL (≈ 58.8 µM) |
| CC(C)=CCc1cc2cc(-c3cc(O)cc(O)c3)oc2cc1O [MORACIN N] | > 100 µg/mL | > 100 µg/mL | > 100 µg/mL |  |  |  |  |  |  |  |  |  |  |  |  |  |  |  |  |  | IC50 [37]: 0.924 µM; IC50 [38]: 2.76 µM; IC50 [39]: > 10 µg/mL; IC50 [40]: > 10 µg/mL; inhibition [41]: 76%; IC50 [42]: > 10 µg/mL; IC50 [43]: > 10 µg/mL; IC50 [44]: > 10 µg/mL |
| CC(C)(O)C(O)Cc1cc2cc(-c3cc(O)cc(O)c3)oc2cc1O (stereo unspecified) | > 100 µg/mL | > 100 µg/mL | > 100 µg/mL | 312 µg/mL (≈ 906 µM) | 78 µg/mL (≈ 227 µM) | 312 µg/mL (≈ 906 µM) | 50% | 7.17 µg/mL (≈ 20.8 µM) | 312 µg/mL (≈ 906 µM) | 312 µg/mL (≈ 906 µM) | 34.6% | 78 µg/mL (≈ 227 µM) | 156 µg/mL (≈ 453 µM) | 156 µg/mL (≈ 453 µM) | 625 µg/mL (≈ 1810 µM) | 312 µg/mL (≈ 906 µM) | 10 µg/mL (≈ 29 µM) | 625 µg/mL (≈ 1810 µM) | 625 µg/mL (≈ 1810 µM) | 312 µg/mL (≈ 906 µM) | IC50 [45]: 14.3 µM; MBC [46]: 39 µg/mL (≈ 113 µM); MFC [31]: 625 µg/mL (≈ 1810 µM); Activity [32]: 38.2%; IC50 [47]: 14.3 µM; Activity [34]: 48%; MBC [35]: 625 µg/mL (≈ 1810 µM); MIC [36]: 156 µg/mL (≈ 453 µM) |
